The values that follow come from patent US20080107679A1, “Skin care compositions including hexapeptide complexes and methods of their manufacture” (priority 2003, published 2008).

One test deals with fine lines and wrinkles. The test is described as follows: Clinical evaluations of the hexapeptide complex: fine lines and wrinkles. The format is in vivo. From the text:
(§1) The combination of ingredients of the skin care compositions of the present invention are believed to provide synergistic benefits which are otherwise not available with any one of the components used by itself. Clinical evaluations based on the use of the hexapeptide complex itself evidenced a reduction in fine lines and wrinkles, including laugh lines, frown lines, and smile lines, by approximately 13% after 2 weeks and approximately 33% in 4 weeks of use. It was further observed that 100% of participants experienced a reduction in under-eye fine lines and wrinkles on the average of approximately 16% after 4 weeks and approximately 52% after 8 weeks of use. Additionally, an increase in moisture content by 37% after 15 minutes of use was observed.

Another test relates to skin. Description: Clinical evaluations of the hexapeptide complex: moisture content. The conditions noted are these: after 15 minutes of use. The format is in vivo.
Text: as §1

In the case of “acetyl hexapeptide-3 [hexapeptide complex]”, the “reduction in fine lines and wrinkles, including laugh lines, frown lines, and smile lines” value is reported as “approximately 13%” in the test with fine lines and wrinkles (after 2 weeks); “approximately 33%” with fine lines and wrinkles (in 4 weeks of use). In addition, the “average reduction in under-eye fine lines and wrinkles” value with fine lines and wrinkles (after 4 weeks) is listed as “approximately 16%”; in the test with fine lines and wrinkles (after 8 weeks of use), “approximately 52%”. The “participants who experienced a reduction in under-eye fine lines and wrinkles” value in the test with fine lines and wrinkles (in vivo) worked out at 100%. In the test on skin, the “increase in moisture content” value was 37%.
